One series relates to Caco-2 cell monolayers. In words: Bidirectional permeability across Caco-2 cell monolayers. To be noted: matrix: human plasma; for A–B Papp / B–A Papp: corrected for fu. In outline:
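Transport run in both directions with either HBSS/20 mM HEPES pH 7.4 or human plasma in apical and basolateral chambers, 0.1% v/v DMSO in donor. Donor and acceptor samples quantified by LC–MS; Papp and mass balance calculated, with plasma Papp corrected for donor fraction unbound. Efflux ratio = mean B–A/A–B Papp.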
(In general: Passage across Caco-2 layers is used to estimate intestinal permeability.)

Series [1] can be described thus: Solubility in biorelevant media. To be noted: 37 °C. In short, it runs like this: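 Measured at 37 °C with 600 rpm orbital shaking in pH 7.4 PBS, FaSSIF-V2, FeSSIF-V2 and FaSSGF. Sampled at 1 h (FaSSGF) or 5–6 h (other media) after double centrifugation; supernatant quantified by LC–MS against calibration standards, triplicate aliquots.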
Series [2] is described as follows: Octanol/pH 7.4 buffer partition coefficient, shake flask. As to conditions: octanol/pH 7.4 buffer, shake flask, 37 °C. In short, it runs like this:
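Octanol stocks (3-30 mg/mL) were diluted 3- and 10-fold and shaken with equal volumes of pH 7.4 phosphate buffer (67 mM, in 43 mM NaCl) at 37 °C. Both phases were quantified by LC-MS against calibration standards. The coefficient is the mean octanol/buffer concentration ratio, with two time points confirming equilibrium.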

For another series, the system named is human liver microsomes. In words: in vitro. To be noted: for HLM CLint: human, microsomes. In outline: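 Compound depletion in human liver microsomes was followed by LC–MS at 2–60 min, with cofactor-free controls. First-order depletion rate constants gave in vitro CLint (µL/min/mg protein), corrected to unbound CLint using measured microsomal fu.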
Series [3] deals with T1, Albumax medium (lipid rich bovine serum albumin) (Bos taurus, UniProt P02769).
T1 construct: purchased Gibco, Thermo Fisher Scientific
The series can be described thus: Binding in Albumax medium via ultracentrifugation. The class given is in vitro ADME. In short, it runs like this: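 Unbound fraction (fu) taken as protein-free supernate concentration over total concentration after ultracentrifuging compound-spiked Albumax at 37 °C (5% or 10% CO2, or air). Analysis used 1:1 mixing with the opposite blank matrix against a common pH 7.4 calibration; degradation judged by start versus end Ctotal.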

Another series deals with human plasma. As to conditions: methods UF, ED, EP or not described per compound, ref [6]–[22] of Additional file 1; cited from earlier work.

The structures appear in SMILES notation. Several values for one entry are separate records, joined by “and”; a condition that tells them apart may be missing. Identical values can stand only once. Marks after values point to notes of the source that are not given here.

T1 sequence (P02769 25-607): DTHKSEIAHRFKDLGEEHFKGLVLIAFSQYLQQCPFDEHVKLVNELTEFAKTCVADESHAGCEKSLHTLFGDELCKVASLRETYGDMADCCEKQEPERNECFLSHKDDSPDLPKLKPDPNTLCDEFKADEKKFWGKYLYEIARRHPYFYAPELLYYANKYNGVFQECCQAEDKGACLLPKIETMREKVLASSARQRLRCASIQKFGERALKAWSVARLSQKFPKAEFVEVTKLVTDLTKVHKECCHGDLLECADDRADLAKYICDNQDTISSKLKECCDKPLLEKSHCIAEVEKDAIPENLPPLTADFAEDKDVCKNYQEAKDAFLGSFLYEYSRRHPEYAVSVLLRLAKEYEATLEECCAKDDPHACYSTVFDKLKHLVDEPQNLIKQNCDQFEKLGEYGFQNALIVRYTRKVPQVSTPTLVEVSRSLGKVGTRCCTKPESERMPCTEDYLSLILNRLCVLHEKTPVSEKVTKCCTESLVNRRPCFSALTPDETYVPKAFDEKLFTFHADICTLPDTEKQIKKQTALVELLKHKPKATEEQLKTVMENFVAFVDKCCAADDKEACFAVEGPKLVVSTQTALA

On to `CC(C)(C)NCc1cc(C(C)(C)C)cc(-c2cnc(C(F)(F)F)c(F)c2)c1O` [JPC3210], for which, in the series with Caco-2 cell monolayers, the “A–B Papp” value was > 300 10^−6 cm/s and the “B–A Papp” value is reported as > 300 10^−6 cm/s. Also, in series [1], the “Solubility FaSSGF (1 h)” value was 213 µg/mL and 535 µM; the “Solubility FaSSIF-V2 (5–6 h)” value is 7.60 µg/mL and 19.1 µM; the “Solubility FeSSIF-V2 (5–6 h)” value was 131 µg/mL and 329 µM; the “Solubility PBS7.4 (5–6 h)” value was 0.800 µg/mL and 2.01 µM. Further, the “Measured Log D7.4” value in series [2] worked out at 5.30. Also, in the series on human liver microsomes, the “Unbound CLint” value was determined as 328 µL/min/mg and the “HLM CLint” value was found to be 9.50 µL/min/mg. In series [3], the “Fraction unbound, Albumax” value is on record as 0.21 ± 0.012. Further, in the series on human plasma, the Literature fu was 0.024.
Broadly, the efflux ratio is the permeability from basolateral to apical divided by that in the opposite direction, in the common usage. Consider `CCN(CC)CCCNc1ccnc2cc(Cl)ccc12.Cl.Cl` [AQ-13], for which, in the series with Caco-2 cell monolayers, the “A–B Papp” value is 25 ± 2.3 10^−6 cm/s and the “B–A Papp” value was 32 ± 0.8 10^−6 cm/s. The efflux ratio in the series with Caco-2 cell monolayers (mean B–A/A–B Papp) came to 1.2. Further, in series [1], the “Solubility FaSSGF (1 h)” value is > 2000 µg/mL and > 6850 µM; the “Solubility FaSSIF-V2 (5–6 h)” value was > 2000 µg/mL and > 6850 µM; the “Solubility FeSSIF-V2 (5–6 h)” value is > 2000 µg/mL and > 6850 µM; the “Solubility PBS7.4 (5–6 h)” value is 1480 µg/mL and 5070 µM. The “Measured Log D7.4” value in series [2] stood at 1.30. In the series with human liver microsomes, the “Unbound CLint” value is given as < 10.6^c µL/min/mg and the “HLM CLint” value is reported as < 7^b µL/min/mg. The “Fraction unbound, Albumax” value in series [3] is on record as 0.85 ± 0.028. For the same compound, the Literature fu in the series with human plasma is recorded as 0.45.

The values above are taken from paper PMC6941357, “An in vitro toolbox to accelerate anti-malarial drug discovery and development” (Malaria Journal, 2020).
